Values of other authors as cited in patent US6080760A, “Alpha 1A adrenergic receptor antagonists” (Merck & Co., Inc., priority 1998, dated 2000).

Columns and labels:
prostatic hyperplasia = settings: reported in EP 0 204597
[1] = system: adrenergic receptors of the alpha1 subtype; settings: reported in WO 92/0073

selective binding to adrenergic receptors of the alpha1 subtype [1] | Compound | urination in cases of prostatic hyperplasia (prostatic hyperplasia)
 | COc1cc2nc(N(C)CCCNC(=O)C3CCCO3)nc(N)c2cc1OC (centres unmarked) [alfuzosin] | induce urination
selective ability | COc1cc2nc(N3CCN(C(=O)[C@H]4CCCO4)CC3)nc(N)c2cc1OC [R(+) enantiomer of terazosin] | 
